# What was measured:
# U251 cells = assay: Cell proliferation / viability assay, U251 (PTEN deficient); format: cell-based, Human; settings: Supplementary Figure 8i
# Method: Cells were seeded into 12-well plates at a density of 1 × 10^4 cells per well. Manual cell counting was carried out at the indicated times using trypan blue and a haemocytometer.
# To determine the antitumour effect of the peptide in vitro, the peptide was incubated with cells for 24 h when the cells were grown to approximately 80% confluence. Cell viability was measured at the indicated time points. The cell lysates were collected for immunoprecipitation as described above. To determine the antitumour effect of the peptide in vivo, the peptide was stereotactically injected using identical coordinates of tumour implantation in 3 μl of PBS. Briefly, 3 weeks after intracranial tumour cell implantation, mice with similar tumour sizes and similar weights were selected and randomly arranged into five groups (n = 6): PBS, PepC (0.25 mg/kg TAT-PepC per injection), Pep9 low dose (Pep9 L, 0.05 mg/kg TAT-Pep9 per injection), Pep9 medium dose (Pep9 M, 0.1 mg/kg TAT-Pep9 per injection), and Pep9 high dose (Pep9 H, 0.25 mg/kg TAT-Pep9 per injection). Each mouse received intratumoural injection every 10 days (at Day 21, Day 31, Day 41, and Day 51), and tumour growth was monitored at Day 21, Day 41, and Day 56. The experiment was terminated at Day 80, and all the mice (if they were alive) were sacrificed as previously described.
# NLRP6/p85α interaction = assay: Competitive ELISA, NLRP6 binding to p85α; format: biochemical; settings: 10 μM peptide (PepC +, Pep9 ++), 1 h
# Method: (§1) DNA encoding full-length NLRP6 was codon optimized and chemically synthesized by Genewiz (Soochow, China). The DNA sequence was subcloned into NdeI-XhoI sites of a pDB-His-MBP vector (kindly given by Pro. Chenggui Han, China Agricultural University, Beijing, China). Recombinant NLRP6 protein was expressed and purified following previous reports, with slight modifications. Briefly, the protein was expressed in E. coli (DE3) at 16 °C with 0.5 mM IPTG induction overnight. Then, the protein was purified by Ni affinity and gel filtration chromatography. The p85α WT and p85α mutant sequences were chemically synthesized and subcloned into BamHI-XhoI sites of a pGEX-6P-1 plasmid by GenScript (Nanjing, China). The E. coli (DE3) transformed with the plasmids were grown in LB medium at 37 °C. The culture medium was supplemented with 0.5 mM IPTG followed by incubation at 16 °C for 16–18 h. The proteins were purified by glutathione-affinity chromatography (Smart-Life Sciences, Changzhou, China) followed by gel filtration chromatography (Cytiva, MA, USA) using PBS. The protein extinction coefficient was calculated by ProtParam, and the protein concentration was determined by the ultraviolet spectrophotometry method.
# The 96-well plate was coated with bovine serum albumin (BSA) or purified NLRP6. HRP-conjugated PepC or HRP-conjugated Pep9 was incubated with BSA or NLRP6 for 1 h, and the unbound peptide was washed away. The HRP substrate was added, and the absorbance was detected at 450 nm. For the competitive ELISA, the 96-well plate was coated with purified p85α. The binding of NLRP6 to p85α competed with 10 μM PepC or 5 μM, 10 μM, 20 μM Pep9 for 1 h.
# recombinant NLRP6 = biological target: T1, recombinant NLRP6 (Homo sapiens, UniProt P59044); assay: Biolayer interferometry (BLI) binding of peptides to recombinant NLRP6; settings: 30 °C, PBS with 0.01% Tween-20
# T1 construct: DNA encoding full-length NLRP6 was codon optimized; His (N); MBP (N); made in house; host or cells: E. coli (DE3)
# T1 sequence (P59044 1-892): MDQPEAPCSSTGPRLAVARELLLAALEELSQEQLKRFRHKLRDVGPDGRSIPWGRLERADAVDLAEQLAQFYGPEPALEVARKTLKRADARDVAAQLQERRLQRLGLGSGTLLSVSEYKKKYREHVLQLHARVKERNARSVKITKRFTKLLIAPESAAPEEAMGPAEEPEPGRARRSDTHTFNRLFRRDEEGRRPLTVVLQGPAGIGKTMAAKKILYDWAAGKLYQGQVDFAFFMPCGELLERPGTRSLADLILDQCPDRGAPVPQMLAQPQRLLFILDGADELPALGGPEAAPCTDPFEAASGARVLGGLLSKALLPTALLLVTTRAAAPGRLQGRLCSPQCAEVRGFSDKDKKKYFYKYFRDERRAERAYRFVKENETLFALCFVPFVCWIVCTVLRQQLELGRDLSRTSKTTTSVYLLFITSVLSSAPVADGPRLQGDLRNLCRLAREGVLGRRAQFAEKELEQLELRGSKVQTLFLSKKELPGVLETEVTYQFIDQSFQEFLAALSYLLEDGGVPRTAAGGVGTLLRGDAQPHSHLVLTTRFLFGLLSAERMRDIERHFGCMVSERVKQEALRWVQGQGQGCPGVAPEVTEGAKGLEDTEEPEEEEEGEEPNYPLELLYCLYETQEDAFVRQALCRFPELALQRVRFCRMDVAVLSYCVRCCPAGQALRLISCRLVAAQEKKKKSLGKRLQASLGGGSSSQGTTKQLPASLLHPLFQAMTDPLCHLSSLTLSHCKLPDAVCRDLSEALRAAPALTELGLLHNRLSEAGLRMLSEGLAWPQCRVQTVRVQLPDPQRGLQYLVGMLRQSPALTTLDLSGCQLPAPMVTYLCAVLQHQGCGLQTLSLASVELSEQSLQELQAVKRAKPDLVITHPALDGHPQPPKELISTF
# Method: as §1, with “The proteins were purified by glutathione-affinity chromatography (Smart-Life Sciences, Changzhou, China) followed by gel filtration chromatography (Cytiva, MA, USA) using PBS.” left out
# Eleven α-helical peptides were synthesized (Supplementary Data 7). […] The interaction between the peptides and NLRP6 was determined by BLI using an Octet Red 96 instrument (FortéBio, CA, USA). […] Responses (nanometre shift) were calculated using data that were double reference subtracted using reference wells and nonspecific binding of the biosensor to the analyte. […]
sequence,measurement,setting,value
"SAEGYQYRALYD [Pep1, peptide found on the p85α SH3 domain; selected as the control named PepC]",Relative cell viability,"U251 cells; 5 μM, replicate 1",1.01
same,Relative cell viability,"U251 cells; 5 μM, replicate 2",1.04
same,Relative cell viability,"U251 cells; 5 μM, replicate 3",0.94
same,Relative cell viability,"U251 cells; 10 μM, replicate 1",0.88
same,Relative cell viability,"U251 cells; 10 μM, replicate 2",0.87
same,Relative cell viability,"U251 cells; 10 μM, replicate 3",0.79
same,Relative cell viability,"U251 cells; 20 μM, replicate 1",0.99
same,Relative cell viability,"U251 cells; 20 μM, replicate 2",1.04
same,Relative cell viability,"U251 cells; 20 μM, replicate 3",0.91
same,Relative cell viability,"U251 cells; 30 μM, replicate 1",1.05
same,Relative cell viability,"U251 cells; 30 μM, replicate 2",0.89
same,Relative cell viability,"U251 cells; 30 μM, replicate 3",0.98
same,ELISA value (NLRP6 binding to p85α),"NLRP6/p85α interaction; replicate 1, no peptide 2.20",1.90
same,ELISA value (NLRP6 binding to p85α),"NLRP6/p85α interaction; replicate 2, no peptide 2.10",2.05
same,ELISA value (NLRP6 binding to p85α),"NLRP6/p85α interaction; replicate 3, no peptide 2.45",1.80
same,binding to NLRP6 (in words),recombinant NLRP6,did not interact with NLRP6

# Source: article PMC10539329, “NLRP6 potentiates PI3K/AKT signalling by promoting autophagic degradation of p85α to drive tumorigenesis” (Nature Communications, 2023)
